# Data published in ChEMBL document CHEMBL1201862, “PubChem BioAssay data set” (2004).
#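 1) Cells in 96-well plates. 2) Compound, 48 h, 5 concentrations. 3) Linear interpolation between surrounding doses. 4) Unreached endpoint = highest concentration. At the GI50, growth is halved.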 Active and inactive are the calls of the source. Rule as the data show it: active = GI50 up to about 1.1 µM and inactive = higher.
# Key:
# Experiment in all cases: NCI tumour cell line growth inhibition, 48 h
# [1] = system: IGROV-1
# [2] = system: CAKI-1
# [3] = system: MOLT-4
# [4] = system: MDA-N
# [5] = system: DMS-114
# [6] = system: HCT-15
# [7] = system: CCRF-CEM
# [8] = system: SN12C
# [9] = system: NCI-H522
# [10] = system: SF-539
# [11] = system: COLO 205
# [12] = system: A549
# [13] = system: SK-OV-3
# [14] = system: HOP-92
# [15] = system: A498
# [16] = system: NCI-H226
# [17] = system: DLD-1
# [18] = system: OVCAR-5
# [19] = system: SF-268
# [20] = system: XF498
# [21] = system: MDA-MB-435
# [22] = system: UO-31
# [23] = system: DMS-273
# [24] = system: HL-60
# [25] = system: LXFL 529
# [26] = system: PC-3
# [27] = system: SR
# [28] = system: KM-20L2
# [29] = system: RPMI-8226
# [30] = system: EKVX
# [31] = system: MCF7
# [32] = system: K562
# [33] = system: UACC-257
# [34] = system: ACHN
# [35] = system: TK-10
# [36] = system: HOP-62
# [37] = system: Hs-578T
# [38] = system: M14
# [39] = system: T47D
# [40] = system: UACC-62
# [41] = system: HCC 2998
# [42] = system: OVCAR-3
# [43] = system: SNB-75
# [44] = system: DU-145
# [45] = system: NCI-H460
# [46] = system: SK-MEL-5
# [47] = system: SF-295
# [48] = system: HT-29
# [49] = system: LOX IMVI
# [50] = system: RXF 393
# [51] = system: SW-620
# [52] = system: NCI-H23
# [53] = system: BT-549
# [54] = system: M19-MEL
# [55] = system: HCT-116
# [56] = system: SK-MEL-28
# [57] = system: OVCAR-8
# [58] = system: 786-0
# [59] = system: SK-MEL-2
# [60] = system: MDA-MB-231
# [61] = system: KM12
# [62] = system: U-251
# [63] = system: HOP-18
# [64] = system: Malme-3M
# [65] = system: OVCAR-4
# [66] = system: SNB-19
# [67] = system: SNB-78
# [68] = system: NCI/ADR-RES
structure (smiles),measurement,setting,value
CC1=C(C(=O)Nc2ccccc2)C(c2ccc(C3C(C(=O)Nc4ccccc4)=C(C)NC(C)=C3C(=O)Nc3ccccc3)cc2)C(C(=O)Nc2ccccc2)=C(C)N1,GI50,[1],2.52 µM (inactive)
same,GI50,[2],4.02 µM (inactive)
same,GI50,[3],1.96 µM (inactive)
same,GI50,[4],3.23 µM (inactive)
same,GI50,[5],3.83 µM (inactive)
same,GI50,[6],2.72 µM
same,GI50,[7],1.58 µM (inactive)
same,GI50,[8],2.04 µM (inactive)
same,GI50,[9],1.54 µM (inactive)
same,GI50,[10],3.56 µM (inactive)
same,GI50,[11],3.21 µM (inactive)
same,GI50,[12],8.05 µM (inactive)
same,GI50,[13],13.1 µM (inactive)
same,GI50,[14],3.51 µM (inactive)
same,GI50,[15],8.99 µM (inactive)
same,GI50,[16],3.96 µM (inactive)
same,GI50,[17],2.38 µM (inactive)
same,GI50,[18],7.35 µM (inactive)
same,GI50,[19],2.2 µM (inactive)
same,GI50,[20],7.36 µM (inactive)
same,GI50,[21],1.86 µM (inactive)
same,GI50,[22],9.27 µM (inactive)
same,GI50,[23],2.62 µM (inactive)
same,GI50,[24],2.43 µM (inactive)
same,GI50,[25],2.1 µM (inactive)
same,GI50,[26],3.23 µM (inactive)
same,GI50,[27],2.03 µM (inactive)
same,GI50,[28],2.04 µM (inactive)
same,GI50,[29],2.61 µM (inactive)
same,GI50,[30],4.72 µM (inactive)
same,GI50,[31],2.86 µM (inactive)
same,GI50,[32],2.67 µM (inactive)
same,GI50,[33],2.13 µM (inactive)
same,GI50,[34],2.04 µM (inactive)
same,GI50,[35],6.46 µM (inactive)
same,GI50,[36],3.68 µM (inactive)
same,GI50,[37],2.88 µM (inactive)
same,GI50,[38],2.5 µM (inactive)
same,GI50,[39],2.7 µM (inactive)
same,GI50,[40],1.67 µM (inactive)
same,GI50,[41],2.47 µM (inactive)
same,GI50,[42],4.38 µM (inactive)
same,GI50,[43],8.2 µM (inactive)
same,GI50,[44],> 10 µM (inactive)
same,GI50,[45],2.67 µM (inactive)
same,GI50,[46],2.26 µM (inactive)
same,GI50,[47],2.88 µM (inactive)
same,GI50,[48],1.85 µM (inactive)
same,GI50,[49],1.61 µM (inactive)
same,GI50,[50],1.91 µM (inactive)
same,GI50,[51],2.11 µM (inactive)
same,GI50,[52],2.86 µM (inactive)
same,GI50,[53],2.55 µM (inactive)
same,GI50,[54],3.5 µM (inactive)
same,GI50,[55],2 µM (inactive)
same,GI50,[56],1.79 µM (inactive)
same,GI50,[57],3.03 µM (inactive)
same,GI50,[58],2.54 µM (inactive)
same,GI50,[59],2.07 µM (inactive)
same,GI50,[60],2.8 µM (inactive)
same,GI50,[61],2.09 µM (inactive)
same,GI50,[62],1.49 µM (inactive)
same,GI50,[63],8.22 µM (inactive)
same,GI50,[64],1.89 µM (inactive)
same,GI50,[65],6.03 µM (inactive)
same,GI50,[66],6.31 µM (inactive)
COc1ccccc1C1C(Cl)C(=O)N1NC(=O)Cc1ccccc1 (configuration not stated),GI50,[1],> 100 µM (inactive)
same,GI50,[2],82.4 µM (inactive)
same,GI50,[3],27.7 µM (inactive)
same,GI50,[5],37.5 µM (inactive)
same,GI50,[6],73.6 µM
same,GI50,[7],> 100 µM (inactive)
same,GI50,[8],> 100 µM (inactive)
same,GI50,[9],48.3 µM (inactive)
same,GI50,[11],> 100 µM (inactive)
same,GI50,[12],> 100 µM (inactive)
same,GI50,[13],71.4 µM (inactive)
same,GI50,[67],> 100 µM (inactive)
same,GI50,[16],48.5 µM (inactive)
same,GI50,[18],> 100 µM (inactive)
same,GI50,[19],> 100 µM (inactive)
same,GI50,[20],> 100 µM (inactive)
same,GI50,[22],32.1 µM (inactive)
same,GI50,[23],43.3 µM (inactive)
same,GI50,[24],34.8 µM (inactive)
same,GI50,[25],> 100 µM (inactive)
same,GI50,[27],26.2 µM (inactive)
same,GI50,[28],75.9 µM (inactive)
same,GI50,[29],46.5 µM (inactive)
same,GI50,[30],> 100 µM (inactive)
same,GI50,[32],35.2 µM (inactive)
same,GI50,[33],> 100 µM (inactive)
same,GI50,[34],> 100 µM (inactive)
same,GI50,[35],> 100 µM (inactive)
same,GI50,[36],82.4 µM (inactive)
same,GI50,[38],> 100 µM (inactive)
same,GI50,[40],83.2 µM (inactive)
same,GI50,[41],75.7 µM (inactive)
same,GI50,[42],> 100 µM (inactive)
same,GI50,[43],31.7 µM (inactive)
same,GI50,[45],> 100 µM (inactive)
same,GI50,[46],61.9 µM (inactive)
same,GI50,[47],> 100 µM (inactive)
same,GI50,[48],> 100 µM (inactive)
same,GI50,[49],50.5 µM (inactive)
same,GI50,[50],53.1 µM (inactive)
same,GI50,[51],52.4 µM (inactive)
same,GI50,[52],> 100 µM (inactive)
same,GI50,[54],> 100 µM (inactive)
same,GI50,[55],62.8 µM (inactive)
same,GI50,[56],> 100 µM (inactive)
same,GI50,[57],> 100 µM (inactive)
same,GI50,[58],> 100 µM (inactive)
same,GI50,[59],53.7 µM (inactive)
same,GI50,[61],> 100 µM (inactive)
same,GI50,[62],> 100 µM (inactive)
same,GI50,[63],30.7 µM (inactive)
same,GI50,[64],53.2 µM (inactive)
same,GI50,[65],75.7 µM (inactive)
same,GI50,[66],> 100 µM (inactive)
CCCCCC/C=C1\CCC(CN(C)C)C1=O (configuration not stated),GI50,[1],10.5 µM (inactive)
same,GI50,[2],4.75 µM (inactive)
same,GI50,[3],3.05 µM (inactive)
same,GI50,[4],5.47 µM (inactive)
same,GI50,[5],4.24 µM (inactive)
same,GI50,[6],2.44 µM
same,GI50,[7],1.83 µM (inactive)
same,GI50,[8],3.74 µM (inactive)
same,GI50,[9],2.85 µM (inactive)
same,GI50,[10],15.1 µM (inactive)
same,GI50,[11],3.15 µM (inactive)
same,GI50,[12],19.8 µM (inactive)
same,GI50,[13],20.3 µM (inactive)
same,GI50,[14],11.4 µM (inactive)
same,GI50,[15],17 µM (inactive)
same,GI50,[16],18.7 µM (inactive)
same,GI50,[17],2.23 µM (inactive)
same,GI50,[18],16.9 µM (inactive)
same,GI50,[19],5.35 µM (inactive)
same,GI50,[20],3.31 µM (inactive)
same,GI50,[21],8.04 µM (inactive)
same,GI50,[22],15.4 µM (inactive)
same,GI50,[23],4.15 µM (inactive)
same,GI50,[24],1.52 µM (inactive)
same,GI50,[25],1.99 µM (inactive)
same,GI50,[26],11.5 µM (inactive)
same,GI50,[27],1.85 µM (inactive)
same,GI50,[28],8.73 µM (inactive)
same,GI50,[29],0.641 µM (active)
same,GI50,[30],16 µM (inactive)
same,GI50,[31],1.86 µM (inactive)
same,GI50,[32],2.4 µM (inactive)
same,GI50,[33],7.71 µM (inactive)
same,GI50,[34],9.64 µM (inactive)
same,GI50,[35],3.53 µM (inactive)
same,GI50,[36],19.6 µM (inactive)
same,GI50,[37],7 µM (inactive)
same,GI50,[38],4.73 µM (inactive)
same,GI50,[39],2.86 µM (inactive)
same,GI50,[40],5.64 µM (inactive)
same,GI50,[41],5.74 µM (inactive)
same,GI50,[42],6.61 µM (inactive)
same,GI50,[43],11 µM (inactive)
same,GI50,[44],20.1 µM (inactive)
same,GI50,[45],16.6 µM (inactive)
same,GI50,[46],14.3 µM (inactive)
same,GI50,[47],12.7 µM (inactive)
same,GI50,[48],4.81 µM (inactive)
same,GI50,[49],1.89 µM (inactive)
same,GI50,[50],3.51 µM (inactive)
same,GI50,[51],2.56 µM (inactive)
same,GI50,[52],8.73 µM (inactive)
same,GI50,[53],18.9 µM (inactive)
same,GI50,[54],2.59 µM (inactive)
same,GI50,[55],3.56 µM (inactive)
same,GI50,[56],4.14 µM (inactive)
same,GI50,[57],4.44 µM (inactive)
same,GI50,[58],1.98 µM (inactive)
same,GI50,[59],13 µM (inactive)
same,GI50,[60],6.43 µM (inactive)
same,GI50,[61],2.48 µM (inactive)
same,GI50,[62],4.25 µM (inactive)
same,GI50,[63],15.4 µM (inactive)
same,GI50,[64],7.23 µM (inactive)
same,GI50,[65],19.6 µM (inactive)
same,GI50,[66],15.4 µM (inactive)
same,GI50,[68],7.38 µM (inactive)
